Assay results reported in US20220378923A1, “BET DEGRADER” (KYOWA KIRIN CO., LTD., priority 2019, published 2022).

What follows are molecules tested on SU-DHL-4 cells (assay: Inhibitory effect on cell viability in SU-DHL-4 cell line (Test Example 1)). Settings: Homo sapiens; SU-DHL-4 cells, 72 hours, Cell Counting Kit-8; concentration showing 90% inhibition of cell viability; read-out: SU-DHL-4 Cell Viability Inhibition Rate IC90.
Format: cell-based, human
Summary of the method: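 SU-DHL-4 cells were grown at 37° C. under 5% CO2 in RPMI1640 with 10 vol % heat-inactivated FBS plus penicillin/streptomycin, seeded and precultured for 18 to 25 hours, then exposed to test compound at 0.1 vol % DMSO for 72 hours. Viability was read with Cell Counting Kit-8 by absorbance at 450 nm.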

Going from `CCC(=O)N1c2ccccc2[C@H](Nc2ccc(CNCc3cn(-c4ccc(N[C@@H]5C[C@H](C)N(C(=O)CC)c6ccccc65)nc4)nn3)cc2)C[C@@H]1C` [Compound 17e, 1-((2S,4R)-2-Methyl-4-((4-((((1-(6-(((2S,4R)-2-methyl-1-propionyl-1,2,3,4-tetrahydroquinolin-4-yl)amino)pyridin-3-yl)-1H-1,2,3-triazol-4-yl)methyl)amino)methyl)phenyl)amino)-3,4-dihydroquinolin-1(2H)-yl)propan-1-one] to `CCC(=O)N1c2ccccc2[C@H](NCC23CC(C(=O)N4CC(C(=O)Nc5ccc(N[C@@H]6C[C@H](C)N(C(=O)CC)c7ccccc76)cc5)C4)(C2)C3)C[C@@H]1C` (relative stereo) [Compound 17n, 1-(3-((((2S,4R)-2-Methyl-1-propionyl-1,2,3,4-tetrahydroquinolin-4-yl)amino)methyl)bicyclo[1.1.1]pentane-1-carbonyl)-N-(4-(((2S*,4R*)-2-methyl-1-propionyl-1,2,3,4-tetrahydroquinolin-4-yl)amino)phenyl)azetidine-3-carboxamide], the IC90 rises from 1.82 nM to 5.14 nM (2.8-fold).

Same assay, conditions: SU-DHL-4 cells, 72 hours, Cell Counting Kit-8; concentration showing 90% inhibition of cell viability; read-out: SU-DHL-4 Cell Viability Inhibition Rate IC90

Going from `CCC(=O)N1c2ccccc2[C@H](Nc2ccc(C(=O)NCCCNC(=O)c3ccc(C4=N[C@@H](CC(=O)OCCN(C)C)c5nnc(C)n5-c5sc(C)c(C)c54)cc3)cc2)C[C@@H]1C` [Compound 13c, 2-(Dimethylamino)ethyl 2-((S)-2,3,9-trimethyl-4-(4-((3-(4-(((2S,4R)-2-methyl-1-propionyl-1,2,3,4-tetrahydroquinolin-4-yl)amino)benzamide)propyl)carbamoyl)phenyl)-6H-thieno[3,2-f][1,2,4]triazolo[4,3-a][1,4]diazepin-6-yl)acetate] to `CCC(=O)N1c2ccccc2[C@H](Nc2ccc(C(=O)NCCCNC(=O)c3ccc(C4=NCc5nnc(C)n5-c5sc(C)c(C)c54)cc3)cc2)C[C@@H]1C` (relative stereo) [Compound 1f, 4-{[(2S*,4R*)-2-Methyl-1-propionyl-1,2,3,4-tetrahydroquinolin-4-yl]amino}-N-{3-[4-(2,3,9-trimethyl-6H-thieno[3,2-f][1,2,4]triazolo[4,3-a][1,4]diazepin-4-yl)benzamide]propyl}benzamide], the IC90 falls from 7.36 nM to 4.78 nM (1.5-fold).

Compared with `Cc1sc2c(c1C)C(c1ccc(C(=O)NC3CCN(C(=O)c4ccc(C5=N[C@@H](CC(=O)OC(C)(C)C)c6nnc(C)n6-c6sc(C)c(C)c65)cc4)CC3)cc1)=N[C@@H](CC(=O)OC(C)(C)C)c1nnc(C)n1-2` [Compound 1i, tert-Butyl 2-((S)-4-{4-[4-(4-{(S)-6-[2-(tert-butoxy)-2-oxoethyl]-2,3,9-trimethyl-6H-thieno[3,2-f][1,2,4]triazolo[4,3-a][1,4]diazepin-4-yl}benzamide)piperidine-1-carbonyl]phenyl}-2,3,9-trimethyl-6H-thieno[3,2-f][1,2,4]triazolo[4,3-a][1,4]diazepin-6-yl)acetate], `CCC(=O)N1c2ccccc2[C@H](Nc2ccc(C(=O)NCCCNC(=O)c3ccc(Cn4c(C(=O)OC)cc5c4CCCC5=O)cc3)cc2)C[C@@H]1C` [Compound 15g, Methyl 1-(4-((3-(4-(((2S,4R)-2-methyl-1-propionyl-1,2,3,4-tetrahydroquinolin-4-yl)amino)benzamide)propyl)carbamoyl)benzyl)-4-oxo-4,5,6,7-tetrahydro-1H-indole-2-carboxylate] is 9.3-fold higher in IC90: 0.54 nM for the first, 5.03 nM for the second.

Going from `CCC(=O)N1c2ccccc2[C@H](NCc2ccc(C(=O)NCc3cn(-c4ccc(N[C@@H]5C[C@H](C)N(C(=O)CC)c6ccccc65)cc4)nn3)cc2)C[C@@H]1C` (relative stereo) [Compound 10h, 4-((a2S*,4R*)-2-Methyl-1-propionyl-1,2,3,4-tetrahydroquinolin-4-yl)amino)methyl)-N-((1-(4-(((2S,4R)-2-methyl-1-propionyl-1,2,3,4-tetrahydroquinolin-4-yl)amino)phenyl)-1H-1,2,3-triazol-4-yl)methyl)benzamide] to `CCC(=O)N1c2ccccc2[C@H](Nc2ccc(C(=O)NCC#CC(=O)NC3CC(N[C@@H]4C[C@H](C)N(C(=O)CC)c5ccccc54)C3)cc2)C[C@@H]1C` (relative stereo) [Compound 10f, 4-(((2S,4R)-2-Methyl-1-propionyl-1,2,3,4-tetrahydroquinolin-4-yl)amino)-N-(4-(((1R,3R)-3-(((2S*,4R*)-2-methyl-1-propionyl-1,2,3,4-tetrahydroquinolin-4-yl)amino)cyclobutyl)amino)-4-oxobut-2-yn-1-yl)benzamide], the IC90 rises from 0.35 nM to 0.92 nM (2.6-fold).

Going from `CCC(=O)N1c2ccccc2[C@@H](Nc2ccc(-n3cc(CNC(=O)C4CCC(N[C@@H]5C[C@H](C)N(C(=O)CC)c6ccccc65)CC4)nn3)cn2)C[C@H]1C` (relative stereo) [Compound 17h, (1R,4S)-4-(((2S,4R)-2-Methyl-1-propionyl-1,2,3,4-tetrahydroquinolin-4-yl)amino)-N-((1-(6-(((2R*,4S*)-2-methyl-1-propionyl-1,2,3,4-tetrahydroquinolin-4-yl)amino)pyridin-3-yl)-1H-1,2,3-triazol-4-yl)methyl)cyclohexane-1-carboxamide] to `CCC(=O)N1c2ccccc2[C@H](Nc2ccc(NC(=O)CNC(=O)C3CCC(N[C@@H]4C[C@H](C)N(C(=O)CC)c5ccccc54)CC3)cc2)C[C@@H]1C` (relative stereo) [Compound 7k, (1R,4R)-4-(((2S*,4R*)-2-Methyl-1-propionyl-1,2,3,4-tetrahydroquinolin-4-yl)amino)-N-(2-((4-(((2S,4R)-2-methyl-1-propionyl-1,2,3,4-tetrahydroquinolin-4-yl)amino)phenyl)amino)-2-oxoethyl)cyclohexane-1-carboxamide], the IC90 rises from 0.2 nM to 0.62 nM (3.1-fold).

Compared with `CCC(=O)N1c2ccccc2[C@H](Nc2ccc(NC(=O)C3CN(C(=O)[C@H]4CC[C@H](N[C@@H]5C[C@H](C)N(C(=O)CC)c6ccccc65)CC4)C3)cc2)C[C@@H]1C` [Compound 8c, 1-((1R,4R)-4-(((2S,4R)-2-Methyl-1-propionyl-1,2,3,4-tetrahydroquinolin-4-yl)amino)cyclohexane-1-carbonyl)-N-(4-(((2S,4R)-2-methyl-1-propionyl-1,2,3,4-tetrahydroquinolin-4-yl)amino)phenyl)azetidine-3-carboxamide], `CCC(=O)N1c2ccccc2[C@H](Nc2ccc(NC(=O)NC3CN(C(=O)C4CCC(N[C@@H]5C[C@H](C)N(C(=O)CC)c6ccccc65)CC4)C3)cc2)C[C@@H]1C` (stereo partly drawn) [Compound 9h, 1-(1-((1R,4r)-4-(((2S,4R)-2-Methyl-1-propionyl-1,2,3,4-tetrahydroquinolin-4-yl)amino)cyclohexane-1-carbonyl)azetidin-3-yl)-3-(4-(((2S,4R)-2-methyl-1-propionyl-1,2,3,4-tetrahydroquinolin-4-yl)amino)phenyl)urea] is 28-fold higher in IC90: 0.26 nM for the first, 7.16 nM for the second.

Work on `CCC(=O)N1c2ccccc2[C@H](Nc2ccc(NC(=O)CCCC(=O)Nc3ccc(Cn4c(CC)cc5c4CCCC5=O)cc3)cc2)C[C@@H]1C` [Compound 15i] yielded an IC90 of 0.88 nM.
